The source of these data is ChEMBL document CHEMBL3507680, “University of Dundee, Gates Library screen for HepG2 cell viability”.

The nature of the data set: Human HepG2 cell viability assay in 384 well format. In kind it is toxicity, cell-based. Set-up: dose 125 nL, time 70.5 hour; cytotoxicity at 70.5 h: concentration not given beside the values. The conditions noted are these: HepG2 cells, read-out: Inhibition.
Regarding `CN(C)c1ccc2c(c1)CN(C(=O)c1ccco1)C2c1cnco1` (stereo not drawn), the cytotoxicity at 70.5 h amounted to 32.5%.
Next, `Cc1occc1C(=O)N1CCO[C@H]2[C@H](OCc3ccccn3)CC[C@@H]21`: -7.78%.
The figure for `COc1c(CNCCNC(=O)c2ccco2)c(C)nn1C` is -10.7%; for `O=C(c1ccccn1)N1C[C@@H]2CC[C@H](C1)N(C(=O)CCc1ccsc1)C2` it is -10.8%.
As to `COc1ccc(F)cc1C(=O)N1CC(c2ccncc2)C1`, the cytotoxicity at 70.5 h was -10%.
Next, `CN(C)CCN(Cc1ccccn1)Cc1ccnn1C1CCCCO1` (stereo not drawn): -2.87%; `OC[C@H]1CN(Cc2c(Cl)cccc2Cl)C[C@H]1CN1CCCCC1`: 7.58%; `COc1cc(C)nc(N2CCN(C(=O)c3ccccc3C)CC2)n1`: 43.9%.
Next, `Cc1ocnc1C(=O)N(Cc1cccnc1)C[C@@H]1CCC(=O)N1`: -8.79%; `O=S(=O)(Cc1ccccc1F)N1CCCC1c1nnc2n1CCCCC2` (stereo not drawn): -6.25%.
The figure for `Cc1nc(C2CCCN2Cc2ccon2)no1` (stereo not drawn) is -5.54%; for `COc1c(CNC2CCN(CC(=O)NC3CC3)CC2)c(C)nn1C` it is 2.59%; for `Cn1cc(C[C@H]2[C@H](O)CCN2C(=O)C2CCCC2)cn1` it is -2.64%.
As for `c1ccc(N2CCC(NCc3cccc4cn[nH]c34)C2)cc1` (stereo not drawn), the cytotoxicity at 70.5 h came out at 7.7%.
The figure for `NC(=O)c1cc2c(nc1N1C[C@H]3OC(=O)N(C4CCCC4)[C@H]3C1)CCC2` is -10.7%; for `CO[C@@H]1CC[C@H]2[C@H]1OCCN2C(=O)c1ccc(C)nc1` it is -3.99%.
The figure for `c1cncc(OCC2CN(Cc3ccco3)Cc3nccn3C2)c1` (stereo not drawn) is 21.3%.
As to `C[C@@H]1CN(C(=O)CCc2nncn2C)CC[C@@]1(O)C1CCC1`, the cytotoxicity at 70.5 h is -5.47%.
Consider `O=C(NCc1cnn2cccnc12)C1CC(=O)N(Cc2cccnc2)C1` (stereo not drawn), for which the cytotoxicity at 70.5 h worked out at 30.6%.
With `CCc1nc(C)sc1CN1CC[C@@](O)(C2CCOCC2)[C@H](C)C1`, the cytotoxicity at 70.5 h was -12.2%.
As to `Cc1cccc(-c2noc(CN3CCCC(Cn4cncn4)C3)n2)c1` (stereo not drawn), the cytotoxicity at 70.5 h was 35.6%.
Next, `Cc1cnccc1CN1CC[C@H](Oc2cccc(F)c2)[C@@](C)(O)C1`: 0.441%; `CC(N)Cc1ccccc1Sc1ccccc1` (stereo not drawn): -1.45%; `O=C(c1ccco1)N1CCC2(CCOC2)C1` (stereo not drawn): -13.3%.
Next, `CC(NC(=O)NCCc1cnn(C)c1)c1ccc(Cl)s1` (stereo not drawn): -15%; `OCCN1CC2(CCN(CC3CC3)CC2)c2ccccc21`: 4.7%; `CNC(=O)c1ccc(CNc2ccncc2Cl)cc1`: -98.3%.
Next, `Cc1noc2ncc(C(=O)NCC3CCOC3)cc12` (stereo not drawn): 22%; `CC(C)c1nccn1C1CCCN(C(=O)CN(C)C2CC2)C1` (stereo not drawn): -2.03%; `CC(C)OCCN1CCN(c2ccc(CN(C)C)cn2)CC1`: 8.47%.
For the compound `COc1cccc2ccc(CN3CCN(c4ncccn4)CC3)nc12`, the cytotoxicity at 70.5 h is -5.87%.
Take `Cc1cc(NC(=O)Cc2ccccc2O)c[nH]c1=O`: the cytotoxicity at 70.5 h was -13.3%.
On to `Cc1cnn(CCC(=O)N2C[C@H]3CC[C@@H]2CN(CC(=O)N(C)C)C3)c1`, for which the cytotoxicity at 70.5 h was -3.83%.
Consider `c1cnc(N2CCO[C@H]3CN(Cc4c[nH]cn4)C[C@H]32)cn1`, for which the cytotoxicity at 70.5 h was -5.79%.
The figure for `CCc1nc(CC(=O)NC(C#N)CC)cs1` (stereo not drawn) is -0.988%; for `Cc1c(C(=O)NCCN2C(=O)CCC2=O)sc2ccc(F)cc12` it is 2.84%; for `CN(CC(=O)NCC1CCCCC1)S(=O)(=O)c1cccnc1` it is -3.39%.
The figure for `CC(C)C(=O)NS(=O)(=O)CCc1ccccc1` is -12.8%; for `O=C(Nc1ccccn1)NC1CCN(c2ccccc2OC(F)F)C1` (stereo not drawn) it is -2.08%; for `CC(C)c1ccc(/C=C/CC(=O)NC2CCN(C(N)=O)CC2)cc1` it is -9.67%.
As to `CC(C)C(=O)N1CCCC1c1nc(N(C)C)ncc1-c1ccc(Cl)cc1` (stereo not drawn), the cytotoxicity at 70.5 h worked out at 6.28%.
In the case of `COc1ccccc1OC1(C(=O)O)CCN(c2nccnc2C)CC1`, the cytotoxicity at 70.5 h was -5.26%.
Next, `O=S(=O)(CCN1CCOC(Cn2cccn2)C1)C(F)(F)F` (stereo not drawn): 11.7%; `O=C(c1ccc(Cl)cc1-n1cnnn1)N1CCC2(CC1)OCCO2`: -0.151%.
Next, `O=C(O)CCNC(=O)N1CCc2c([nH]c3ccc(Cl)cc23)C1`: -6.59%; `CN1C(=O)CC2(CCN(S(=O)(=O)c3cccs3)CC2)c2ccccc21`: 8.66%.
Next, `COC(=O)CCC(=O)N1CCc2[nH]nc(-c3ccc(F)c(F)c3)c2C1`: -8.06%; `CNS(=O)(=O)CC1CCCN1C(=O)c1cccc(Cl)c1` (stereo not drawn): -7.35%; `Cc1ccc(CN2CCOC(c3cnccn3)C2)s1` (stereo not drawn): -5.54%.
With `Cn1cc(CN2CC[C@H]3OCC[C@@H](C(=O)NC4CCCC4)[C@@H]3C2)cn1`, the cytotoxicity at 70.5 h was -17.5%.
Regarding `O=C(c1nc(=O)[nH]c2ccccc12)N1CCCC2(CCNC2)C1` (stereo not drawn), the cytotoxicity at 70.5 h is 8.43%.
Next, `Nc1cc(C(=O)N2CCC(Oc3cccc(C(F)(F)F)c3)CC2)ccn1`: -3.83%.
As to `CN(C)c1nccc(NCc2cc(-c3ccco3)n[nH]2)n1`, the cytotoxicity at 70.5 h was -3.1%.
Take `CCn1nc(C)c(CN(CCCN(C)C)Cc2ccccn2)c1C`: the cytotoxicity at 70.5 h was found to be 21.3%.
The figure for `CCc1ccc(S(=O)(=O)Nc2ccn(CC(=O)OC)n2)cc1` is -4.63%; for `Cc1ccc(C(=O)N2CCC3(CCC(=O)N(CC(C)O)C3)CC2)c(O)c1` (stereo not drawn) it is -7.72%; for `CC(=O)Nc1ccc(CNc2cccc(CS(C)(=O)=O)c2)cc1` it is -3.91%.
The figure for `Cc1n[nH]c(CCC(=O)N2CCOC(Cc3ccc(F)cc3)C2)c1C` (stereo not drawn) is 10.5%.
The figure for `CC1(C)OC(=O)N(CC(=O)N2CCC(c3ccccc3F)C2)C1=O` (stereo not drawn) is -3.83%.
As for `CS(=O)(=O)NCCNc1ncnc2cccc(F)c12`, the cytotoxicity at 70.5 h is -6.37%.
The figure for `CCN1CCC(NC(=O)CN2CCc3c(nc(C4CC4)n3C)C2)CC1` is -10.9%.
For `COCCn1c2c(ccc1=O)CCN(C(=O)CC1CC1)CC2`, the cytotoxicity at 70.5 h was -2.25%.
Next, `Cn1cc(CN2CCCCC2c2ccc(-c3cccc(Cl)c3)nc2)cn1` (stereo not drawn): -4.26%; `Cc1cc(C)n(CCCC(=O)N2CC[C@H]3NCCC[C@]3(CO)C2)n1`: -2.14%.
The figure for `COCCOc1ccccc1C(=O)N(C)Cc1ncc(C)c(OC)c1C` is -5.65%; for `Cc1nn(C)c2nc(N(Cc3ccccn3)CC3CCCO3)sc12` (stereo not drawn) it is 17.1%.
Next, `Cc1cc(C)n(CC(C)Nc2nc(-c3ccncc3)nc3c2CNC3)n1` (stereo not drawn): 17.3%; `CN(C)CCCNC(=O)C(c1cccc(F)c1)N(C)C` (stereo not drawn): -2.43%; `NC(=O)C1Cn2ccnc2C2(CCN(C(=O)c3ccncc3)CC2)O1` (stereo not drawn): -4.78%.
As for `NC(=O)CS(=O)(=O)Cc1csc(-c2ccccc2)n1`, the cytotoxicity at 70.5 h was -4.61%.
On to `Cn1cc(CN2CCn3cnc(COCC4CC4)c3C2)cn1`, for which the cytotoxicity at 70.5 h amounted to 14.1%.
Next, `CC(C)OCCCNC(=O)N(C)C(C)c1ccc(-n2cncn2)cc1` (stereo not drawn): -6.64%.
Next, `Cc1ccsc1CN(Cc1ncccc1C(=O)O)C1CC1`: -5.62%; `COc1ccnc(N2CCN(C(=O)CCc3cnn(C)c3)CC2)n1`: -11.9%; `Cc1oncc1C(=O)NCC1(O)CCc2ccccc2C1` (stereo not drawn): 0.91%.
Next, `CO[C@H]1CCN(S(=O)(=O)c2cn(C)cn2)[C@H]1Cc1ccccc1`: 0.174%; `C[C@H]1CN(c2ccccn2)C[C@@]12CCN(c1cccnc1)C2=O`: -2.67%.
Turning to `CC(C)c1nc(CN(C)Cc2ncccc2C(=O)O)cs1`, the cytotoxicity at 70.5 h came to 4.17%.
Next, `CN(CCc1ncnn1C1Cc2ccccc2C1)C1CCS(=O)(=O)C1` (stereo not drawn): -11.8%; `CC[C@H](C)[C@H](NC(=O)Cc1csc(-c2cccc(Cl)c2)n1)C(=O)O`: -27.4%.
Regarding `Cc1cc(-c2cnc(NC3CCCC3)nc2-c2ccco2)on1`, the cytotoxicity at 70.5 h is -6.66%.
Next, `O=C(NCCc1ccn(-c2ccccc2)n1)N1CCC1`: -2.97%; `CCN(C(=O)c1ccc2nnc(C3CCN(CCOC)C3)n2c1)C(C)C` (stereo not drawn): -13.6%.
Next, `O=C(NCc1ccc(CN2CCCC2)cc1)NC1(CO)CCCC1`: 2.2%; `O=C1CC2(CCN(CC3CCOC3)CC2)CN1Cc1cc(F)cc(F)c1` (stereo not drawn): -6.96%; `CCC(=O)N1CCCC(c2nc(N(C)C)ncc2-c2ccc(F)cc2)C1` (stereo not drawn): 3.25%.
Next, `Cc1nc2c(c(N3CCCOCC3)n1)CCN(c1nccs1)CC2`: -6.82%; `O=C1CC2(CCN(Cc3ccncc3)C2)CN1c1cccc(F)c1` (stereo not drawn): -12.5%.
As to `O=C(NCCCN1CCCC1=O)c1nc(-c2ccc3cc[nH]c3c2)no1`, the cytotoxicity at 70.5 h is -22.5%.
Next, `Cc1nnc(C(C)N2CCc3[nH]c4ccc(Cl)cc4c3C2)o1` (stereo not drawn): -4.39%; `CCCc1nnc(NCCCn2nc(C)c(Cl)c2C)o1`: -7.76%; `O=C(NCc1cncc2c1CCN(CC1CCOC1)C2)c1ccco1` (stereo not drawn): 19.6%.
Next, `O=C1NCCCCC1NC(=O)C1(Oc2ccc(Cl)cc2)CCNCC1` (stereo not drawn): -7.72%; `CC1(c2ccccc2)CCCN(C(=O)c2ccn3nnnc3c2)C1` (stereo not drawn): -0.523%; `CC(C)(C)CC(=O)N1CCC(n2cc(C3(O)CCCC3)nn2)CC1`: -7.65%.
`CNC(=O)c1cccc(C2CNCCN2C(=O)c2cccc(F)c2)c1` (stereo not drawn): the cytotoxicity at 70.5 h came to 25%.
Next, `OCCn1nccc1C1CCN(CCOc2cccc(F)c2)CC1`: -1.45%.
The figure for `COc1cccc(NC(=O)NCC(Cc2cnn(C)c2)C(N)=O)c1` (stereo not drawn) is -7.2%.
